assay: Human HepG2 cell viability assay in 384 well format; format: toxicity, cell-based; set-up: dose 125 nL, time 70.5 hour; cytotoxicity at 70.5 h: concentration not given beside the values; conditions: HepG2 cells, read-out: Inhibition

Row | SMILES | cytotoxicity at 70.5 h [%]
1 | COCC(=O)N1CC[C@H]2O[C@@H](C)C[C@H]2C1 | -8.73
2 | CC(C)CS(=O)(=O)NC(=O)c1ccc2c(c1)ncn2C | -4.45
3 | Cc1cc2cccc(C(=O)N3CCOC4(CNCCOC4)C3)c2o1 (centres undefined) | 32.7
4 | CC(C)N(CCS(C)(=O)=O)Cc1csc(-c2ccccc2F)n1 | -13.1
5 | Cc1ccc(N2CCCC(NCc3cc(C)on3)C2)nn1 (centres undefined) | -3.47
6 | Cc1cc(C(=O)NCc2ccc(-c3n[nH]cc3C(=O)N(C)C)cc2)on1 | -2.38
7 | NC(=O)C1CCN(C(=O)c2ccc(Sc3ccccn3)cc2)CC1 | -2.31
8 | COCCN1CCC2(COCc3cnc(N4CCOCC4)nc32)C1 (centres undefined) | 28.1
9 | NCc1cnn(-c2ccccc2C(=O)NCCc2ccncc2)c1 | -7.18
10 | CCCNC(=O)C(C)Oc1ccccc1 (centres undefined) | -5.34
11 | COCC(=O)Nc1cc(S(=O)(=O)C(F)(F)F)ccc1OC | 2.14
12 | CS(=O)(=O)NCCCN1CCCC1c1cccc(Br)c1 (centres undefined) | -9.99
13 | O=C(c1ccccc1)N1CCO[C@@H]2CN(c3ncccn3)C[C@@H]2C1 | -6.94
14 | O=C(c1cn(Cc2ccccc2)c2ncccc12)N1CCCCC1 | 3.09
15 | CC(=O)N1CCn2c(C(=O)N(C)C)cnc2C1 | -29.5
16 | COC(=O)Cn1c(=O)cc(C(F)F)c2c(C)nn(CC(F)F)c21 | -8.33
17 | Cc1nc(CN[C@H]2CCCN(C(=O)OC(C)(C)C)C2)cs1 | -3.34
18 | Cc1cc(CN2C[C@@H]3CCCO[C@@H]3[C@H](N(C)C(C)C)C2)no1 | -3.76
19 | CS(=O)(=O)N1CCCC12CCCN(S(=O)(=O)c1ccc(F)cc1)C2 (centres undefined) | -8.04
20 | Cc1cc2n(n1)CC(CNC1CCN(c3ccccn3)CC1)CN2 (centres undefined) | -0.0737
21 | CCOCC(=O)N1CCC(CSCc2ccco2)CC1 | -10.8
22 | CC(Cc1ccco1)NC(=O)Nc1ccc(N2CCOCC2)nc1 (centres undefined) | -4.87
23 | CC(C)(CO)Nc1c(NCc2ccccc2)c(=O)c1=O | 0.361

Row | SMILES | cytotoxicity at 70.5 h [%]
24 | CC(C)c1noc(CN2CCN(C(=O)c3ccccc3F)CC2)n1 | -18.6
25 | Cc1noc(C2CCCN(Cn3cc(Cl)cn3)C2)n1 (centres undefined) | -1.46
26 | COCCNC(=O)c1cc(-c2cc[nH]n2)n2ccccc12 | -117
27 | Cc1nccn1-c1ccc(N2CCC(N[C@H](C)C(C)C)CC2)cc1 | 0.757
28 | CN(C)c1ccc(CC(=O)N[C@@H]2CCNC[C@H]2O)cc1 | -3.58
29 | CCOC(=O)C1(NCC(=O)Nc2cc(C)ccc2OC)CCCC1 | 21.1
30 | Cc1ccc(CN2CC[C@@H]3[C@@H]2CCN3C(=O)Cc2cccs2)o1 | -5.34
31 | COCC1COCCC12CCN(C(=O)CC1=CCCCC1)CC2 (centres undefined) | -2.79
32 | COCCCNC(=O)Nc1ccc(OCc2noc(C3CC3)n2)cc1 | -11.8
33 | Cc1ncc(CN2CCC3(CCCN(CC4CCC4)C3)C2)cn1 (centres undefined) | -4.13
34 | CCOCC(=O)N1Cc2[nH]nc(COCC3CC3)c2C1 | 0.817
35 | O=C1CN(C(=O)C2CCCCC2)CC(O)CN1Cc1ccco1 (centres undefined) | -4.93
36 | O=C(CCSC1CCc2ccccc2NC1=O)NCCCO (centres undefined) | -12.2
37 | CS(=O)(=O)N1CCN(C(=O)Cn2ccc3c(Cl)cccc32)CC1 | 8.68
38 | c1ccc(C2CN(C3CC3)CC3(CCN(Cc4ncc[nH]4)CC3)C2)cc1 (centres undefined) | -6.48
39 | O=C(NC1CCN(c2nccs2)CC1)c1cccs1 | 10.5
40 | COCC(=O)Nc1ccc(Oc2ccsc2C(=O)O)cc1 | -6.01
41 | CC(C)NC(=O)CC1COC2(CCN(Cc3ccccc3)CC2)C1 (centres undefined) | -14.2
42 | Cc1nn(C)c2cnn(CC(=O)NCc3cccs3)c12 | -8.64
43 | Cc1cc(=O)n2nc(-c3cccs3)nc2n1CC(=O)NC(C)C | -24
44 | COc1ccc(CN2Cc3cn(C)nc3C(COCC3CC3)C2)cc1 (centres undefined) | -4.4
45 | O=C(NCCc1cc(N2CCOCC2)nc(NC2CC2)n1)C1CCCO1 (centres undefined) | -6.3
46 | O=C(O)c1ccc(CC2CCN(Cc3ccc(-c4cc[nH]n4)o3)C2)cc1 (centres undefined) | -5.13

Row | SMILES | cytotoxicity at 70.5 h [%]
47 | COC(=O)c1ccc(S(=O)(=O)NCC(O)c2sccc2C)cc1 (centres undefined) | -2.62
48 | CC(C)N(CCNC(=O)c1ccc(S(=O)(=O)NC2CC2)cc1)C(C)C | 25.6
49 | CCOc1nnc(CN2CCCC(c3nc4ccccc4[nH]3)C2)s1 (centres undefined) | -3.56
50 | CS(=O)(=O)NC1CCN(C(=O)c2cc3ccccc3s2)C1 (centres undefined) | -22.9
51 | O=C(NCCCN1CCc2ccccc2C1)c1cccnc1O | -11.9
52 | CCCN(CC)C(=O)c1ncn2c1CN(C)S(=O)(=O)c1ccccc1-2 | 1.29
53 | Cc1ccc(C)c(C(=O)N2CCOC(CCN(C)C)C2)c1 (centres undefined) | -9.2
54 | Cc1ccccc1CN1CC[C@H]2C[C@H](C(=O)N(C)C)O[C@H]2C1 | -12.7
55 | Cc1ccccc1C(C)NC(=O)CN1CCN(Cc2cccs2)CC1 (centres undefined) | 0.186
56 | COCC(=O)N1CCN(C(=O)c2cccs2)C[C@H]1C(=O)OC | 1.41
57 | COc1ccc(Br)cc1CCC(=O)N1CCCC(O)C1 (centres undefined) | -5.19
58 | Cc1nnc2n1CCN(C(=O)C1CCC(n3cccc3)CC1)C2 (centres undefined) | -8.85
59 | Cc1cc(C)c2ncc(C#N)c(N3CCS(=O)(=O)CC3)c2c1 | -7.23
60 | CN(C)c1cc(CNC(=O)Nc2ccc(C#N)cc2)ccn1 | -11.3
61 | Cc1noc(CNc2ccc(CC(=O)N3CCSCC3)cc2)n1 | -5.52
62 | NC(=O)C1CCCN(C(=O)c2cccc(OCc3cscn3)c2)C1 (centres undefined) | -9.59
63 | CN(Cc1ccsc1)C(=O)CNC(=O)N1CCc2ccccc2C1 | -7.67
64 | COCCCC1(C(=O)O)CCCN(Cc2cc3c(cc2C)OCCO3)C1 (centres undefined) | -8.65
65 | Cc1[nH]nc(-c2ccc(F)cc2)c1CC(=O)NCC1CCOCC1 | -9.72
66 | O=S(=O)(c1cn[nH]c1)N1C[C@@H](O)[C@H](N2CCc3ccccc3C2)C1 | -7.48
67 | COC(=O)CCC(=O)N1CCC2(CN(Cc3ccccc3)C2)C1 | 21
68 | CCN(CC)C(=O)Cn1ccc2cc(NC(=O)C3CCCO3)ccc21 (centres undefined) | 7.81
69 | O=C1C(N2CCOC3(CCCC3)C2)CCN1C1CC1 (centres undefined) | -1.76

Row | SMILES | cytotoxicity at 70.5 h [%]
70 | CC(C)[C@@H]1CN(c2ncc(F)cn2)C[C@H]1NC(=O)N(C)C | -3.08
71 | c1cncc(CCc2nc(C3CC3)nn2-c2ccc3c(c2)OCCO3)c1 | 21.8
72 | Cc1cccc(C2CCCCCN2Cc2cn(C)nc2C)c1 (centres undefined) | -9.15
73 | CC(C)N(C)Cc1cnc2n1CCN(C(=O)Cc1ccsc1)C2 | 3.66
74 | Cc1cccnc1CN1CCN(Cc2ccc(-c3cc[nH]n3)o2)CC1 | -7.65
75 | O=C(Cc1csc(-c2ccco2)n1)N1CCN(CCO)CC1 | 5.35
76 | CCc1cc(-c2cc[nH]n2)nc(N2CCCC2)n1 | -7.99
77 | COCc1ccccc1CNc1cc(N2CCCC2CO)ncn1 (centres undefined) | -18.2
78 | O=C(NC1CCCC1)N1CCCC(c2nccn2Cc2ccncc2)C1 (centres undefined) | 0.665
79 | C=C(C)CN(CC)Cc1nc(C)no1 | -6.47
80 | Cc1ccc(N2CCN(C(=O)[C@@H]3CCC(=O)N3)CC2=O)cc1 | -7.74
81 | Cc1ccc(NC2CCCN(C3Cc4ccccc4C3)C2)nn1 (centres undefined) | -4.1
82 | CN(CCn1ccc2ccccc21)C(=O)Cc1n[nH]c(=O)[nH]1 | 1.76
83 | CC(C)CNC(=O)NC(=O)C(C)Nc1cccc(CN2CCOC2=O)c1 (centres undefined) | -10.8
84 | CC(C)OCCCNC(=O)CN1C=Nc2ccccc2S1(=O)=O | -7.79
85 | O=C(c1ccc(Cn2ccccc2=O)o1)N1CCC2(CC1)OCCO2 | -2.65
86 | COc1ccc2cnn(CC(=O)NC3CCCC3)c(=O)c2c1OC | 2.71
87 | CCC(O)CN1CCN(C(=O)c2csc(COC)n2)CC1 (centres undefined) | -3.48
88 | Cc1cccc(CNC(=O)CC2CCN(S(C)(=O)=O)CC2)n1 | -4.65
89 | COc1cc2c(cc1OC)CN(C(=O)NCC1CCCO1)CC2 (centres undefined) | -3.43
90 | O=C1CCC(=O)c2oc3ccc(Cl)cc3c2N1 | -14
91 | COCc1nc(N(C)CCSc2ccccc2)c2cnn(C)c2n1 | -5.78
92 | Cc1ccc(C(=O)N2C[C@H]3CN(Cc4csc(C)n4)C[C@H]3C2)cn1 | 1.63

Row | SMILES | cytotoxicity at 70.5 h [%]
93 | CCc1cc(NCc2cc(CC(C)C)on2)n2nccc2n1 | -2.02
94 | Cc1ccc(-c2nnc(CN3CCc4nn(C)c(=O)cc4C3)o2)cc1 | 3.35
95 | CC[C@@]1(O)CCN(C(=O)c2ccsc2)C[C@H]1O | -7.08
96 | CCOc1c(CNCCCn2ccnc2)cc(Cl)cc1OC | -5.3
97 | COc1ccc(C(C)N2CCC(NS(C)(=O)=O)CC2)cc1Cl (centres undefined) | 10.5
98 | CCC(C)(C)n1nnnc1C(c1cccs1)N1CCCCC1 (centres undefined) | -3.15
99 | CC(C)C(Sc1nncn1C1CC1)C(=O)NCc1cccnc1 (centres undefined) | -2.46
100 | Cc1noc(C)c1CN1CCn2cc(CN3CCCCC3)nc2C1 | -3.15
101 | COc1cccc(CN(C)c2ncc(C(N)=O)cc2Cl)c1 | -4.58
102 | Cc1ccc(-c2cn(C3CCN(C(=O)[C@H]4CCCO4)CC3)nn2)cc1 | -5.5
103 | CCN(CC)C(=O)c1ccc(Cl)c(NC(=O)c2cnc(C)cn2)c1 | -7.02
104 | Nc1cc(-c2nccnc2N2CCCC2)c2cc[nH]c2n1 | -11.5
105 | COc1ccc(F)cc1C(=O)N1C[C@H]2C[C@H](OC)C[C@H]2C1 | -6.25
106 | CCn1cnnc1CNC(=O)c1ccc(Cl)cc1F | -4.7
107 | CC(=O)N1C[C@@H]2CN(S(=O)(=O)C3CC3)CCO[C@@H]2C1 | -1.33
108 | CN1CCCN(C(=O)NCc2ccccc2Cn2cncn2)CC1 | -2.94
109 | COC(=O)c1ccc(C2SCC(=O)Nc3ccsc32)cc1 (centres undefined) | -8.05
110 | CC(=O)N1CCN(Cc2ccc(C(F)(F)F)cc2F)CC(O)C1 (centres undefined) | -10.5
111 | CCC(C)(NCC(=O)NC(C)C)c1nc(C)cs1 (centres undefined) | -3.79
112 | O=C(C1CC1)N1CCC2(COCc3cnc(NCc4ccco4)nc32)C1 (centres undefined) | -2.45
113 | CCOc1ccc(NC(=O)N2CCOC(C(N)=O)C2)cc1Cl (centres undefined) | 2.49
114 | CCOc1ccc(NC(C)=O)cc1S(=O)(=O)Nc1cc(C)on1 | -6.08

From ChEMBL document CHEMBL3507680, “University of Dundee, Gates Library screen for HepG2 cell viability”
